# Test results taken from patent US20110263647A1 (AMGEN INC., priority 2009, published 2011).
# Where a name gives a salt, the structure may show the parent alone.
# What was measured:
# PKBα = biological target: T1, PKBα (Homo sapiens, UniProt P31749); test: PKB kinase assay (P33-labeled ATP, peptide substrate, filter plate); assay type: biochemical; settings: with respect to PKBα
# T1 construct: fused on or other part: His6 tag is likely on the Upstate products
# From the text: The kinase assay for evaluating PKB activity comprises active PKB enzymes, a PKB specific substrate, and P^33-labeled ATP. Two form of PKBα enzymes were used, the full length PKBα and a kinase domain of PKBα with pleckstrin domain (amino acids 1-117) deleted. Both PKB enzymes were obtained from Upstate cell signaling solutions (Cat.# 14-276 and 14-341). The PKB substrate used is a synthetic peptide (ARKRERTYSFGHHA (SEQ ID NO: 1)) as described in Obata et al., J. Biol. Chem. 275 (46), 36108-36115 (2000). The phosphorylated substrate was captured by a phosphocellulose membrane filter plate (MILLIPORE) and measured by a Wallac Microbeta liquid scintillation counter (Perkin Elmer). Table 1 provides the IC50 values obtained for each of the examples with respect to PKBα.
# [1] = In vivo pharmacokinetics, IV and oral gavage; design: species or system male Sprague-Dawley rats; settings: male, Sprague-Dawley, plasma, rat, IV 0.5 mg/kg
# Procedure: In vivo pharmacokinetic parameters were determined by measuring systemic plasma exposure in male Sprague-Dawley rats (Charles River Laboratories or Taconic, Oxnard, Calif.) by intravenous administration (N=3 fed rats: 2 mg/kg tail vein injection in DMSO) and oral gavage (N=3 fasted rats: 5 mg/kg in 1% Tween 80-2% HPMC-97% deionized water-pH 2.0 vehicle) (Comparative Example 18′ was only dosed IV and at 0.5 mg/kg). DMSO was obtained from Mallinckrodt Inc.; Tween 80 was obtained from Croda; HPMC is Methocel E50 Premium LV, obtained from Dow Excipients. Following oral administration, blood was drawn (250 μL) at 0.25, 0.5, 1, 2, 4, 6, 8, 12, and 16 hours. Following iv administration, blood was drawn (250 μL) at 0.083, 0.25, 0.5, 1, 2, 4, 6, 8, and 16 hours. Blood samples were drawn using a Culex® In Vivo Sampling System (BASi) and collected in BD Microtainer® tubes containing Lithium Heparin (BD). Plasma was obtained by centrifugation of blood at 14000 g and 2-8° C. for five minutes using an Eppendorf 5417R Centrifuge System. Plasma samples were mixed with 2× volume of acetonitrile (Sigma-Aldrich, St. Louis, Mo.). The mixture was stirred briefly using a vortex mixer and then centrifuged at 2867 g for 5 minutes in a Beckman Coulter Allegra 25R equipped with a Type S5700 rotor. The supernatant was removed and diluted 2× with mobile phase A (5/94.9/0.1 v/v/v MeOH/water/AcOH). Plasma concentrations were determined using liquid chromatography/tandem mass spectrometry, with electrospray ionization (ESI) and multiple reaction monitoring in the positive ion mode (Sciex API 3000 mass spectrometer connected to a Shimadzu LC-20AD pump and a LEAP PAL autosampler. Typical conditions used for HPLC were: mobile phase A=5/94.9/0.1 v/v/v MeOH/water/AcOH and mobile phase B=95/4.9/0.1 v/v/v MeOH/water/AcOH; HPLC column was a Varian MonoChrom C18.3μ for 2×30 mm and 51.1 for 2×50 mm) Instrument response was calibrated by a standard curve over 0.1-2000 ng/mL concentration range, and the lower limit of quantitation was 0.1-2.5 ng/mL. Peak areas were integrated on a Windows 2000 computer using the Sciex program Analyst® (Version 1.4.1). Following peak area integration, the data were exported to the software package (Watson® Non-GLP PROD (Version 7.0.0.01, Thermo Electron Corp., Waltham, Mass.)), where concentrations were determined by a weighted linear regression of peak area versus the nominal concentrations of the calibration standards. Calculations were performed on unrounded numbers. The Watson® Non-GLP PROD software was used to determine precision and accuracy for the calibration standards. Noncompartmental analysis of plasma concentration data was used to generate PK parameters such as clearance (CL, L/h/kg), volume of distribution (Vss, L/kg), area under the curve (AUC, ng·h/mL) and secondary parameters such as half-life (t1/2, h) and oral bioavailability (% F, %). This was done using WinNonlin Enterprise software (Version 5.1.1, from Pharsight Corp., Mountain View, Calif.). References for pharmacokinetic analysis include: Gabrielsson and Weiner (1997) Pharmacokinetic and Pharmacodynamic Data Analysis Concepts and Applications, 2nd ed., Swedish Pharmaceutical Press, Stockholm; Gibaldi and Perrier (1982) Pharmacokinetics, 2nd ed., Marcel Dekker, New York. Rowland and Tozer (1995) Clinical Pharmacokinetics: Concepts and Applications, 3rd ed., Lippincott Williams & Wilkins, Philadelphia.
# T1 sequence (P31749 118-472 limits assumed): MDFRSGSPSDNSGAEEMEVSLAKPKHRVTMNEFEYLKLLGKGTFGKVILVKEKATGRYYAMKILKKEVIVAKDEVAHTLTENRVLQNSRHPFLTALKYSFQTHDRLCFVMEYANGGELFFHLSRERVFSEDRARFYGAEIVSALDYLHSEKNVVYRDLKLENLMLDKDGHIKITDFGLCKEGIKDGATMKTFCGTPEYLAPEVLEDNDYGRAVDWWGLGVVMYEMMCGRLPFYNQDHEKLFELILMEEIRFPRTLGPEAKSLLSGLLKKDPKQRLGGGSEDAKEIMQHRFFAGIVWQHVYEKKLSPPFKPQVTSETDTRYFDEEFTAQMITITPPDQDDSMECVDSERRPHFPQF
SMILES,IC50 (PKBα),also measured
"NC(CCc1nc(CO)c(-c2ccc3cnc(F)cc3c2)s1)Cc1ccc(C(F)(F)F)cc1 (racemic) [Example 51, (±)-(2-(3-Amino-4-(4-(trifluoromethyl)phenyl)butyl)-5-(3-fluoroisoquinolin-6-yl)thiazol-4-yl)methanol]",50 to 1000 nM,
"COCc1nc(NCC(N)[C@@H](C)c2ccc(C(F)(F)F)cc2)sc1-c1ccc2cnc(F)cc2c1 (stereo in doubt) [Example 27, N-((2R,3S)-2-Amino-3-(4-(trifluoromethyl)phenyl)butyl)-5-(3-fluoroisoquinolin-6-yl)-4-(methoxymethyl)thiazol-2-amine]",< 50 nM,
"NC(CNc1ncc(-c2ccc3cnc(F)cc3c2)s1)Cn1ccc(C(F)(F)F)n1 (stereo in doubt) [Example 29, N—((S)-2-Amino-3-(3-(trifluoromethyl)-1H-pyrazol-1-yl)propyl)-5-(3-fluoroisoquinolin-6-yl)thiazol-2-amine]",50 to 1000 nM,
"COCc1nc(NC[C@@H](N)Cc2ccc(C(F)(F)F)nc2)sc1-c1ccc2cnccc2c1 [Comparative Example 18′, (S)—N-1-(5-(Isoquinolin-6-yl)-4-(methoxymethyl)thiazol-2-yl)-3-(6-(trifluoromethyl)pyridin-3-yl)propane-1,2-diamine, reference compound]",,clearance [1]: 237 mL/min/kg; AUC(0-t) ([1]; read-out: IV AUClast): 33 ng·h/mL; Cmax ([1]; read-out: IV Cmax): 73 ng/mL; Vd ([1]; read-out: Vss): 6.44 L/kg
"CC(C)(C)OC(=O)N[C@@H](Cc1ccc(C(F)(F)F)nc1)CN(C(=O)OC(C)(C)C)c1ncc(-c2ccc3cnc(F)cc3c2)s1 [Example 1, tert-Butyl ((2S)-2-((tert-butoxycarbonyl)amino)-3-(6-(trifluoromethyl)-3-pyridinyl)propyl)(5-(3-fluoro-6-isoquinolinyl)-1,3-thiazol-2-yl)carbamate]",1000 to 10000 nM,
"CC(F)(F)c1ccc(C[C@H](N)CNc2ncc(-c3ccc4cnc(F)cc4c3)s2)cc1 [Example 3, N—((S)-2-Amino-3-(4-(1,1-difluoroethyl)phenyl)propyl)-5-(3-fluoroisoquinolin-6-yl)thiazol-2-amine]",< 50 nM,
"N[C@H](CNc1ncc(-c2ccc3cnc(F)cc3c2)s1)Cc1ccc(Cl)cc1 [Example 5, N—((S)-2-Amino-3-(4-chlorophenyl)propyl)-5-(3-fluoroisoquinolin-6-yl)thiazol-2-amine]",< 50 nM,
"COCc1nc(NC[C@@H](N)Cc2ccc(C(C)(F)F)nc2)sc1-c1ccc2cnc(F)cc2c1 [Example 6, N—((S)-2-Amino-3-(6-(1,1-difluoroethyl)pyridin-3-yl)propyl)-5-(3-fluoroisoquinolin-6-yl-4-(methoxymethyl)thiazol-2-amine trifluoroacetate]",< 50 nM,
"COC(=O)c1nc(NC[C@@H](N)Cc2ccc(C(C)(F)F)nc2)sc1-c1ccc2cnc(F)cc2c1 [Example 8, Methyl 2-((S)-2-amino-3-(6-(1,1-difluoroethyl)pyridin-3-yl)propylamino)-5-(3-fluoroisoquinolin-6-yl)thiazole-4-carboxylate]",< 50 nM,
"CC(F)(F)c1ccc(C[C@H](N)CNc2nc(CO)c(-c3ccc4cnc(F)cc4c3)s2)cn1 [Example 9, (2-((S)-2-Amino-3-(6-(1,1-difluoroethyl)pyridin-3-yl)propylamino)-5-(3-fluoroisoquinolin-6-yl)thiazol-4-yl)methanol]",< 50 nM,
"COC(=O)c1nc(NC[C@@H](N)[C@@H](C)c2ccc(C(F)(F)F)nc2)sc1-c1ccc2cnc(F)cc2c1 [Example 11, Methyl 2-((2S,3S)-2-amino-3-(6-(trifluoromethyl)pyridin-3-yl)butylamino)-5-(3-fluoroisoquinolin-6-yl)thiazole-4-carboxylate]",50 to 1000 nM,
"C[C@@H](c1ccc(C(F)(F)F)nc1)[C@H](N)CNc1nc(CO)c(-c2ccc3cnc(F)cc3c2)s1 [Example 12, (2-((2S,3S)-2-Amino-3-(6-(trifluoromethyl)pyridin-3-yl)butylamino)-5-(3-fluoroisoquinolin-6-yl)thiazol-4-yl)methanol]",< 50 nM,
"COCc1nc(NC[C@@H](N)[C@@H](C)c2ccc(C(F)(F)F)nc2)sc1-c1ccc2cnc(F)cc2c1 [Example 13, N-((2S,3S)-2-Amino-3-(6-(trifluoromethyl)pyridin-3-yl)butyl)-5-(3-fluoroisoquinolin-6-yl)-4-(methoxymethyl)thiazol-2-amine]",< 50 nM,
"N[C@H](CNc1ncc(-c2ccc3cnc(F)cc3c2)s1)Cc1ccc(Cl)c(Cl)c1 [Example 14, N—((S)-2-amino-3-(3,4-dichlorophenyl)propyl)-5-(3-fluoroisoquinolin-6-yl)thiazol-2-amine]",< 50 nM,
"COC(=O)c1nc(NC[C@@H](N)Cc2ccc(C(F)(F)F)nc2)sc1-c1ccc2cnc(F)cc2c1 [Example 15, Methyl 2-((S)-2-amino-3-(6-(trifluoromethyl)pyridin-3-yl)propylamino)-5-(3-fluoroisoquinolin-6-yl)thiazole-4-carboxylate]",< 50 nM,
"N[C@H](CNc1nc(CO)c(-c2ccc3cnc(F)cc3c2)s1)Cc1ccc(C(F)(F)F)nc1 [Example 16, (2-((S)-2-Amino-3-(6-(trifluoromethyl)pyridin-3-yl)propylamino)-5-(3-fluoroisoquinolin-6-yl)thiazol-4-yl)methanol]",< 50 nM,
CNC(=O)c1nc(NC[C@@H](N)Cc2ccc(C(F)(F)F)nc2)sc1-c1ccc2cnc(F)cc2c1 [Example 17],50 to 1000 nM,
"COCc1nc(NC[C@H](N)Cc2ccc(C(F)(F)F)nc2)sc1-c1ccc2cnc(F)cc2c1 [Example 19, N—((R)-2-Amino-3-(6-(trifluoromethyl)pyridin-3-yl)propyl)-5-(3-fluoroisoquinolin-6-yl)-4-(methoxymethyl)thiazol-2-amine]",1000 to 10000 nM,
"COC(=O)c1nc(NC[C@@H](N)Cc2ccc(C(F)(F)F)cc2)sc1-c1ccc2cnc(F)cc2c1 [Example 20, Methyl 2-((S)-2-amino-3-(4-(trifluoromethyl)phenyl)propylamino)-5-(3-fluoroisoquinolin-6-yl)thiazole-4-carboxylate]",< 50 nM,
"N[C@H](CNc1nc(CO)c(-c2ccc3cnc(F)cc3c2)s1)Cc1ccc(C(F)(F)F)cc1 [Example 21, (2-((S)-2-Amino-3-(4-(trifluoromethyl)phenyl)propylamino)-5-(3-fluoroisoquinolin-6-yl)thiazol-4-yl)methanol]",< 50 nM,
"CNC(=O)c1nc(NC[C@@H](N)Cc2ccc(C(F)(F)F)cc2)sc1-c1ccc2cnc(F)cc2c1 [Example 22, 2-((S)-2-Amino-3-(4-(trifluoromethyl)phenyl)propylamino)-5-(3-fluoroisoquinolin-6-yl)-N-methylthiazole-4-carboxamide trifluoroacetate]",50 to 1000 nM,
"N[C@H](CNc1nc(C(=O)NC2CC2)c(-c2ccc3cnc(F)cc3c2)s1)Cc1ccc(C(F)(F)F)cc1 [Example 23, 2-((S)-2-Amino-3-(4-(trifluoromethyl)phenyl)propylamino)-N-cyclopropyl-5-(3-fluoroisoquinolin-6-yl)thiazole-4-carboxamide]",1000 to 10000 nM,
